# Target: T1, PI3Kβ (Homo sapiens, UniProt P42338)
# T1 construct: purchased sigma (US)
# Assay: In vitro enzyme activity (ADP-Glo) against PI3Kβ
# Format: biochemical
# Conditions: Table 2; ATP 10 μM, PIP2:PS 50 μM; read-out: IC50 against PI3Kβ
# Protocol: (§1) In vitro enzyme activity experiments were performed to determine the IC50 values of the compounds against PI3K family type I kinases (PI3Kα, PI3Kβ, PI3Kγ, PI3Kδ) and type II kinases (PIK3C2A, PIK3C2B). Protein kinases PI3Kα, PI3Kγ, PI3Kδ, PIK3C2A, and PIK3C2B were all purchased from Invitrogen (US); protein kinase PI3Kβ was purchased from sigma (US); the three substrates PIP2: PS, PI and PI: PS were purchased from Invitrogen (US).
# (§2) Protein kinases diluted to a certain concentration, i.e., PI3Kα 5.4 μL (with a final concentration of 0.16 ng/μL), PI3Kβ 5.4 μL (with a final concentration of 6 ng/μL), PI3Kδ 5.4 μL (with a final concentration of 1 ng/μL), PI3Kγ 5.4 μL (with a final concentration of 5 ng/μL), PIK3C2A 5.4 μL (with a final concentration of 5 ng/μL), and PIK3C2B 5.4 μL (with a final concentration of 10 ng/μL) were respectively reacted with 1 μL of the serially diluted drug compounds for 1 hour at room temperature (final drug concentrations were 10 μM, 1 μM, 0.3 μM, 0.1 μM, 0.03 μM, 0.01 μM, 0.003 μM, and 0.001 μM, respectively).
# (§3) To each reaction tube of the above PI3K family type I kinases, 6 μL of a mixture of ATP (Promega, US) and substrate PIP2:PS (final concentrations of ATP in the reaction systems of kinases PI3Kα, and PI3Kβ were 10 μM, and final concentrations of ATP in the reaction systems of kinases PI3Kδ, and PI3Kγ were 50 μM, and final concentrations of the substrate PIP2:PS were all 50 μM) was added, and reacted at 37° C. for 1 hour. The reaction buffer was 50 mM Hepes (pH 7.5) (Promega, USA), 3 mM MgCl2, 1 mM EGTA (Promega, US), 100 mM NaCl, 0.03% CHAPS (Promega, US).
# (§4) 5 μL of kinase solution after reaction was placed in a 384-well plate (Corning, US), and 5 μL of ADP-Glo™ reagent (Promega, US) was added thereto and reacted at room temperature for 40 minutes to stop the kinase reaction and exhaust the remaining ATP; 10 μL of kinase detection reagent was added to convert ADP into ATP, and coupled luciferase/luciferin reaction was utilized to detect the newly synthesized ATP. Envision was utilized for readout and plotting, and Graphpad IC50 value was calculated.
# T1 sequence (P42338 whole entry): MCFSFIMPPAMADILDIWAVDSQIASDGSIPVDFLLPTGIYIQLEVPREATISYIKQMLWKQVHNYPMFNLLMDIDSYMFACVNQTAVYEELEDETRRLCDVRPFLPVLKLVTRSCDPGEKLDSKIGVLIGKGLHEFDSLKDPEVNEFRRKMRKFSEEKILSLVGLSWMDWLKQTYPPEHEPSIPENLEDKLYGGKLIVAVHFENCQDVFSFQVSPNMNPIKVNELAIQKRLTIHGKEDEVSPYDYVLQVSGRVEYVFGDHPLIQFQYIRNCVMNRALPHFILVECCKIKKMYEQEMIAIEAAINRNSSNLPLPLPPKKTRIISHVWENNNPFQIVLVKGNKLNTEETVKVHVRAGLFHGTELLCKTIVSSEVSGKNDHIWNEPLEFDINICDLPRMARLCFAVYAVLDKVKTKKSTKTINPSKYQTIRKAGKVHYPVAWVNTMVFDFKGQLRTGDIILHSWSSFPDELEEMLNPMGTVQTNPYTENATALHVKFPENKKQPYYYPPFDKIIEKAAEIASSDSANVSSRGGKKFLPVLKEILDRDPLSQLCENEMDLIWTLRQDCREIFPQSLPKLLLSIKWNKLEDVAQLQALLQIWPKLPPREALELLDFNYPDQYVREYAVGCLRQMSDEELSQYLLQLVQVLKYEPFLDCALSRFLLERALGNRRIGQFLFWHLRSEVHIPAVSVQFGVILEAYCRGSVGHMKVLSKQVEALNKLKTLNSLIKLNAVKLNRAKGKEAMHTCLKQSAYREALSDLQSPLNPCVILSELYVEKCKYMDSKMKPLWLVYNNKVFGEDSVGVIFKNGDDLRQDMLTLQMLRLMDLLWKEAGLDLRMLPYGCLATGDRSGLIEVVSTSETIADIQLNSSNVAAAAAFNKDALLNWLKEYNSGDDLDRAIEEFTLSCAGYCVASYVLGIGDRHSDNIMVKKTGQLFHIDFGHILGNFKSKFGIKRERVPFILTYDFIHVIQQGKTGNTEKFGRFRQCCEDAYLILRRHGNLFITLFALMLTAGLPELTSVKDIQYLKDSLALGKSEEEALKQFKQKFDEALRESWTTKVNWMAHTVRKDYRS
# T1 sequence (P27986 whole entry partner): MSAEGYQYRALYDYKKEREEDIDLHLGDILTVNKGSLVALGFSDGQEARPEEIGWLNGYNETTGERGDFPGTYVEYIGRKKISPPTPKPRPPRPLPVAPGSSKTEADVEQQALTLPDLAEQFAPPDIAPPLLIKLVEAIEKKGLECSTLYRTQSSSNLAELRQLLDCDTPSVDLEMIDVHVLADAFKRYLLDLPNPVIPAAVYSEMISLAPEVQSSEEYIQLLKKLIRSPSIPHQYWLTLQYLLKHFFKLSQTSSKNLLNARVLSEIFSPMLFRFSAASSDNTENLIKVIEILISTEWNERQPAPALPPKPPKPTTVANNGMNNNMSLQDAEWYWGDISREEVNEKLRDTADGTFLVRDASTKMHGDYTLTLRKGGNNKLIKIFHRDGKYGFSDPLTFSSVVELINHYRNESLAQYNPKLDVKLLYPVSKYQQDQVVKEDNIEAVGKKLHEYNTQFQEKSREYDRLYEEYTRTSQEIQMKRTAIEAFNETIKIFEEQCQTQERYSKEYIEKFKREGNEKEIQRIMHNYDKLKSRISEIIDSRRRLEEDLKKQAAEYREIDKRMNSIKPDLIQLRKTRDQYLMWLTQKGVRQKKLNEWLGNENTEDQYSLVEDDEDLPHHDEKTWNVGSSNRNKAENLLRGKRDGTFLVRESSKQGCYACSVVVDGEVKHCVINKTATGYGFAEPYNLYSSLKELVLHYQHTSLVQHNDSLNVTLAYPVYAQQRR
row,IC50 [µM],SMILES
1,0.547,"COc1ccc(-c2nn(C(C)c3nc4cccc(F)c4c(=O)n3C3CCC3)c3ncnc(N)c23)cc1 (stereo not drawn) [Compound 19, 2-(1-(4-amino-3-(4-methoxyphenyl)-1H-pyrazolo [3,4-d]pyrimidin-1-yl)ethyl)-3-cyclobutyl-5-fluoroquinazolin-4(3H)-one]"

# Same assay, conditions: Table 3; ATP 10 μM, PIP2:PS 50 μM; read-out: IC50 PIK3β
row,SMILES,IC50 [µM]
1,"CC(C)Oc1ccc(-c2nn([C@@H](C)c3oc4ccc(F)cc4c(=O)c3-c3cccc(F)c3)c3ncnc(N)c23)cc1F [TGR1202, reference compound]",> 10

# Target: T2, PI3Kγ (Homo sapiens, UniProt P48736)
# T2 construct: purchased Invitrogen (US)
# Assay: In vitro enzyme activity (ADP-Glo) against PI3Kγ
# Format: biochemical
# Conditions: Table 2; ATP 50 μM, PIP2:PS 50 μM; read-out: IC50 against PI3Kγ
# Protocol: as §1, §2, §3, §4
# T2 sequence (P48736 whole entry): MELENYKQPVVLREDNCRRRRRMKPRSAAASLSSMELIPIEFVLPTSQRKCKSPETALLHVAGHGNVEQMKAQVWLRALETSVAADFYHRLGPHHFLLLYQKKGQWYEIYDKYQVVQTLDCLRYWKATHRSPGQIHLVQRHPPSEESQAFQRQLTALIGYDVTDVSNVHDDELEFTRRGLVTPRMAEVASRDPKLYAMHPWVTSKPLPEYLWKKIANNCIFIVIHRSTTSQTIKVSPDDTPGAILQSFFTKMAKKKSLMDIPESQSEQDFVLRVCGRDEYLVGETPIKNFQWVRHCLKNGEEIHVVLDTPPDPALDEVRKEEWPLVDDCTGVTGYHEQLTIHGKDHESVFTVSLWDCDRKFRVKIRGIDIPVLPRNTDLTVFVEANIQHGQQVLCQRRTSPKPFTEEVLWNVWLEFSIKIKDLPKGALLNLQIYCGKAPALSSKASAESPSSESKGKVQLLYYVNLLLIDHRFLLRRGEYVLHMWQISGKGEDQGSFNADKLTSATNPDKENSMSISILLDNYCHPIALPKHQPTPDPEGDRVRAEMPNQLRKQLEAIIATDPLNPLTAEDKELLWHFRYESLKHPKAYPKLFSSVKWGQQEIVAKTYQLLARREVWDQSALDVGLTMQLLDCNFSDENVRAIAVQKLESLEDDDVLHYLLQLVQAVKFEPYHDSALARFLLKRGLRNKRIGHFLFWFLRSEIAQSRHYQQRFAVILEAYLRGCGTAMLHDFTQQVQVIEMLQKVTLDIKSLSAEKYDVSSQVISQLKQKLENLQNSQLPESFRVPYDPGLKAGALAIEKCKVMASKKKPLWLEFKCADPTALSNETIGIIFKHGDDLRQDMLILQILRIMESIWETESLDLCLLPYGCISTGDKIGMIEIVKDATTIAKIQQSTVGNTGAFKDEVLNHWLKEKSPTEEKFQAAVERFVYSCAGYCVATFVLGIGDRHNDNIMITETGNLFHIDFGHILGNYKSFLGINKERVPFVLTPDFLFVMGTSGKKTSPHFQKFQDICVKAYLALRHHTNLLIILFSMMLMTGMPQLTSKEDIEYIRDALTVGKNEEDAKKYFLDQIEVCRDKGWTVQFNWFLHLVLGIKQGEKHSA
row,IC50 [µM],SMILES
1,0.689,"COc1ccc(-c2nn(C(C)c3nc4cccc(F)c4c(=O)n3C3CCC3)c3ncnc(N)c23)cc1 (stereo not drawn) [Compound 19, 2-(1-(4-amino-3-(4-methoxyphenyl)-1H-pyrazolo [3,4-d]pyrimidin-1-yl)ethyl)-3-cyclobutyl-5-fluoroquinazolin-4(3H)-one]"

# Same assay, conditions: Table 3; ATP 50 μM, PIP2:PS 50 μM; read-out: IC50 PIK3γ
row,SMILES,IC50 [µM]
1,"CC(C)Oc1ccc(-c2nn([C@@H](C)c3oc4ccc(F)cc4c(=O)c3-c3cccc(F)c3)c3ncnc(N)c23)cc1F [TGR1202, reference compound]",0.362

# Target: T3, PI3Kδ (Homo sapiens, UniProt O00329)
# T3 construct: purchased Invitrogen (US)
# Assay: In vitro enzyme activity (ADP-Glo) against PI3Kδ
# Format: biochemical
# Conditions: Table 2; ATP 50 μM, PIP2:PS 50 μM
# Protocol: as §1, §2, §3, §4
# T3 sequence (O00329 whole entry): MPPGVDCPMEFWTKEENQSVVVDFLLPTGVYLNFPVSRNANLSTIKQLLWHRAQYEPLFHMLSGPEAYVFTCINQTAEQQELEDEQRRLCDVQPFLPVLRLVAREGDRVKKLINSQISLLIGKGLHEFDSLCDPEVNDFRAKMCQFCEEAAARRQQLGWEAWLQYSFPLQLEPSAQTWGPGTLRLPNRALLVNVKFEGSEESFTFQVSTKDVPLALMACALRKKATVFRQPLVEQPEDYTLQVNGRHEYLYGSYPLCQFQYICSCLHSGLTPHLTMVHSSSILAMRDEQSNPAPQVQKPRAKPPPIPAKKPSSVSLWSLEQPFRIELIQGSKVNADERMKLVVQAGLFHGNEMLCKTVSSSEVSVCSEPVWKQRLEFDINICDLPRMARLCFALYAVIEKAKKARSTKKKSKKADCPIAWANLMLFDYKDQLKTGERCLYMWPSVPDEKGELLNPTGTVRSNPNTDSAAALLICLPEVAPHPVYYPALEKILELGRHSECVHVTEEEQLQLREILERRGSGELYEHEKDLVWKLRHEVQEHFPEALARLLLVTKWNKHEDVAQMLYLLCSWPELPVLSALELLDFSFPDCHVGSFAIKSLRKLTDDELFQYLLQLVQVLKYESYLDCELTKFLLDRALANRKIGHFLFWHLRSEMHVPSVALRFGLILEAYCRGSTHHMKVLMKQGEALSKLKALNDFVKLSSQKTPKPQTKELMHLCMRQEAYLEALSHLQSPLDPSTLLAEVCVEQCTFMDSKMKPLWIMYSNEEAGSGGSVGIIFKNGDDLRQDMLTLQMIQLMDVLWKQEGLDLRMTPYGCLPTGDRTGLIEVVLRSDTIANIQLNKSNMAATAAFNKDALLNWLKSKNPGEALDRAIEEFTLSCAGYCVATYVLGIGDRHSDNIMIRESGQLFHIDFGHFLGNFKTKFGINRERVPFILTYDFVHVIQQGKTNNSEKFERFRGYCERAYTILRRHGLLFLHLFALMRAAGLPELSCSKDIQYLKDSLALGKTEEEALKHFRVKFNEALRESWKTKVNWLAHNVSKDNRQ
# T3 sequence (P27986 whole entry partner): as the sequence (P27986 whole entry partner) above
row,SMILES,IC50 [µM]
1,"CC(c1nc2cccc(F)c2c(=O)n1C1CCCC1)n1nc(-c2cccc(F)c2)c2c(N)ncnc21 (stereo not drawn) [Compound 12, 2-(1-(4-amino-3-(3-fluorophenyl)-1H-pyrazolo [3,4-d]pyrimidin-1-yl)ethyl)-3-cyclopentyl-5-fluoroquinazolin-4(3H)-one]",0.082
2,"COc1ccc(-c2nn(C(C)c3nc4c(Cl)cccc4c(=O)n3C3CCC3)c3ncnc(N)c23)cc1F (stereo not drawn) [Compound 29, 2-(1-(4-amino-3-(3-fluoro-4-methoxyphenyl)-1H-pyrazolo [3,4-d]pyrimidin-1-yl)ethyl)-8-chloro-3-cyclobutylquinazolin-4(3H)-one]",0.0773
3,"COc1ccc(-c2nn(C(C)c3nc4cccc(F)c4c(=O)n3C3CCC3)c3ncnc(N)c23)cc1 (stereo not drawn) [Compound 19, 2-(1-(4-amino-3-(4-methoxyphenyl)-1H-pyrazolo [3,4-d]pyrimidin-1-yl)ethyl)-3-cyclobutyl-5-fluoroquinazolin-4(3H)-one]",0.0379
4,"CC(C)c1ccc(-c2nn(C(C)c3nc4cccc(F)c4c(=O)n3C3CCCC3)c3ncnc(N)c23)cc1 (stereo not drawn) [Compound 24, 2-(1-(4-amino-3-(4-isopropylphenyl)-1H-pyrazolo [3,4-d]pyrimidin-1-yl)ethyl)-3-cyclopentyl-5-fluoroquinazolin-4(3H)-one]",0.0215
5,"CC(c1nc2cccc(F)c2c(=O)n1C1CCCC1)n1nc(-c2cnc3ccccc3c2)c2c(N)ncnc21 (stereo not drawn) [Compound 26, 2-(1-(4-amino-3-(quinolin-3-yl)-1H-pyrazolo [3,4-d]pyrimidin-1-yl)ethyl)-3-cyclopentyl-5-fluoroquinazolin-4(3H)-one]",0.0557
6,"CC(C)c1ccc(-c2nn(C(C)c3nc4cccc(F)c4c(=O)n3C3CCC3)c3ncnc(N)c23)cc1 (stereo not drawn) [Compound 28, 2-(1-(4-amino-3-(4-isopropylphenyl)-1H-pyrazolo [3,4-d]pyrimidin-1-yl)ethyl)-3-cyclobutyl-5-fluoroquinazolin-4(3H)-one]",0.0833
7,"Cc1ccc(-c2nn(C(C)c3nc4cccc(F)c4c(=O)n3C3CCCC3)c3ncnc(N)c23)cc1F (stereo not drawn) [Compound 25, 2-(1-(4-amino-3-(3-fluoro-4-methylphenyl)-1H-pyrazolo [3,4-d]pyrimidin-1-yl)ethyl)-3-cyclopentyl-5-fluoroquinazolin-4(3H)-one]",0.0175
8,"COc1ccc(-c2nn(C(C)c3nc4cccc(F)c4c(=O)n3C3CCCC3)c3ncnc(N)c23)cc1C (stereo not drawn) [Compound 36, 2-(1-(4-amino-3-(4-methoxy-3-methylphenyl)-1H-pyrazolo [3,4-d]pyrimidin-1-yl)ethyl)-3-cyclopentyl-5-fluoroquinazolin-4(3H)-one]",0.0162
9,"COc1ccc(-c2nn(C(C)c3nc4cccc(F)c4c(=O)n3C3CCC3)c3ncnc(N)c23)cc1C (stereo not drawn) [Compound 34, 2-(1-(4-amino-3-(4-methoxy-3-methylphenyl)-1H-pyrazolo [3,4-d]pyrimidin-1-yl)ethyl)-3-cyclobutyl-5-fluoroquinazolin-4(3H)-one]",0.0418
10,"COc1ccc(-c2nn(Cc3nc4cccc(F)c4c(=O)n3C3CCC3)c3ncnc(N)c23)cc1F [Compound 7, 2-((4-amino-3-(3-fluoro-4-methoxyphenyl)-1H-pyrazolo [3,4-d]pyrimidin-1-yl)methyl)-3-cyclobutyl-5-fluoroquinazolin-4(3H)-one]",0.0999
11,"CC(c1nc2cccc(F)c2c(=O)n1C1CCC1)n1nc(-c2ccc3c(c2)OCO3)c2c(N)ncnc21 (stereo not drawn) [Compound 35, 2-(1-(4-amino-3-(benzo[d][1,3]dioxol-5-yl)-1H-pyrazolo [3,4-d]pyrimidin-1-yl)ethyl)-3-cyclobutyl-5-fluoroquinazolin-4(3H)-one]",0.0262

# Second part, the compound after the results:
row,IC50 [µM],SMILES
1,0.0272,"COc1ccc(-c2nn(C(C)c3nc4ccccc4c(=O)n3C3CC3)c3ncnc(N)c23)cc1 (stereo not drawn) [Compound 45, 2-(1-(4-amino-3-(4-methoxyphenyl)-1H-pyrazolo [3,4-d]pyrimidin-1-yl)ethyl)-3-cyclopropylquinazolin-4(3H)-one]"
2,0.0567,"CCC(c1nc2cc(F)c(F)cc2c(=O)n1C1CC1)n1nc(-c2ccc(OC)c(F)c2)c2c(N)ncnc21 (stereo not drawn) [Compound 56, 2-(1-(4-amino-3-(3-fluoro-4-methoxyphenyl)-1H-pyrazolo [3,4-d]pyrimidin-1-yl)propyl)-3-cyclopropyl-6,7-difluoroquinazolin-4(3H)-one]"
3,0.0289,"CCC(c1nc2cccc(F)c2c(=O)n1C1CC1)n1nc(-c2ccc(OC)cc2)c2c(N)ncnc21 (stereo not drawn) [Compound 40, 2-(1-(4-amino-3-(4-methoxyphenyl)-1H-pyrazolo [3,4-d]pyrimidin-1-yl)propyl)-3-cyclopropyl-5-fluoroquinazolin-4(3H)-one]"
4,0.0321,"CCC(c1nc2cccc(F)c2c(=O)n1C1CC1)n1nc(-c2ccc(OC)c(OC)c2)c2c(N)ncnc21 (stereo not drawn) [Compound 47, 2-(1-(4-amino-3-(3,4-dimethoxyphenyl)-1H-pyrazolo [3,4-d]pyrimidin-1-yl)propyl)-3-cyclopropyl-5-fluoroquinazolin-4(3H)-one]"
5,0.039,"COc1ccc(-c2nn(C(C)c3nc4cccc(F)c4c(=O)n3C3CCC3)c3ncnc(N)c23)cn1 (stereo not drawn) [Compound 54, 2-(1-(4-amino-3-(6-methoxypyridin-3-yl)-1H-pyrazolo [3,4-d]pyrimidin-1-yl)ethyl)-3-cyclobutyl-5-fluoroquinazolin-4(3H)-one]"
6,0.0347,"CC(c1nc2cccc(F)c2c(=O)n1C1CCCC1)n1nc(-c2ccc3c(c2)OCO3)c2c(N)ncnc21 (stereo not drawn) [Compound 46, 2-(1-(4-amino-3-(benzo[d][1,3]dioxol-5-yl)-1H-pyrazolo [3,4-d]pyrimidin-1-yl)ethyl)-3-cyclopentyl-5-fluoroquinazolin-4(3H)-one]"
7,0.0438,"CC(=O)Nc1ccc(-c2nn(C(C)c3nc4cccc(F)c4c(=O)n3C3CCC3)c3ncnc(N)c23)cc1 (stereo not drawn) [Compound 53, N-(4-(4-amino-1-(1-(3-cyclobutyl-5-fluoro-4-oxo-3,4-dihydroquinazolin-2-yl)ethyl)-1H-pyrazolo[3,4-d]pyrimidin-3-yl)phenyl)acetamide]"
8,0.0273,"Cc1ccc(-c2nn(C(C)c3nc4ccc(F)cc4c(=O)n3C3CC3)c3ncnc(N)c23)cc1F (stereo not drawn) [Compound 43, 2-(1-(4-amino-3-(3-fluoro-4-methylphenyl)-1H-pyrazolo [3,4-d]pyrimidin-1-yl)ethyl)-3-cyclopropyl-6-fluoroquinazolin-4-(3H)-one]"
9,0.0235,"COc1ccc(-c2nn(C(C)c3nc4ccccc4c(=O)n3C3CCC3)c3ncnc(N)c23)cc1C (stereo not drawn) [Compound 39, 2-(1-(4-amino-3-(4-methoxy-3-methylphenyl)-1H-pyrazolo [3,4-d]pyrimidin-1-yl)ethyl)-3-cyclobutylquinazolin-4(3H)-one]"
10,0.0398,"COc1ccc(-c2nn(C(C)c3nc4ccccc4c(=O)n3C3CC3)c3ncnc(N)c23)cc1C (stereo not drawn) [Compound 44, 2-(1-(4-amino-3-(4-methoxy-3-methylphenyl)-1H-pyrazolo [3,4-d]pyrimidin-1-yl)ethyl)-3-cyclopropylquinazolin-4(3H)-one]"
11,0.0367,"CC[C@H](c1nc2cccc(F)c2c(=O)n1C1CC1)n1nc(-c2ccc(OC)c(F)c2)c2c(N)ncnc21 [Compound 82, 2-((R)-1-(4-amino-3-(3-fluoro-4-methoxyphenyl)-1H-pyrazolo [3,4-d]pyrimidin-1-yl)propyl)-3-cyclopropyl-5-fluoroquinazolin-4(3H)-one]"
12,0.0485,"CCC(c1nc2cccc(F)c2c(=O)n1C1CC1)n1nc(-c2ccc(OC)nc2)c2c(N)ncnc21 (stereo not drawn) [Compound 50, 2-(1-(4-amino-3-(6-methoxypyridin-3-yl)-1H-pyrazolo [3,4-d]pyrimidin-1-yl)propyl)-3-cyclopropyl-5-fluoroquinazolin-4(3H)-one]"
